The test system of test [1] is Mus musculus. Kind of test: Antinociceptive activity in Kunming mouse assessed as inhibition of acetic acid-induced writhes at 10 mg/kg, ip pretreated for 15 mins followed by acetic acid challenge measured for 30 mins. The test is classed as functional, organism-based.
Test [2] relates to Mus musculus. In words: Antinociceptive activity in Kunming mouse assessed as inhibition of acetic acid-induced writhes at 0.8 mg/kg, ip pretreated for 15 mins followed by acetic acid challenge measured for 30 mins relative to control. The test is classed as functional.
For test [3], the system named is Mus musculus. In words: Antinociceptive activity in Kunming mouse assessed as inhibition of acetic acid-induced writhes at 0.08 mg/kg, ip pretreated for 15 mins followed by acetic acid challenge measured for 30 mins relative to control. The test is classed as functional.

For orientation: inhibition in vivo means the drop in the measured response relative to a control, in per cent.

Activity calls are given as the source filed them. No cut-off for these calls is given here.

As for `C=C1[C@H]2CC[C@]3(O)C[C@@]2(C[C@@H](O)[C@@]2(O)[C@H]1C[C@H](O)C2(C)C)C[C@@]3(C)O`, the inhibition result in the test on Mus musculus [1] is “Active”. Consider `CC1(C)[C@@H](O)[C@H](O)[C@H]2[C@](C)(O)[C@@H]3CC[C@]4(O)C[C@@]3(C[C@@H](O)[C@@]21O)C[C@@]4(C)O`, for which the inhibition in vivo at 0.8 mg/kg in the test with Mus musculus [2] was determined as 68%.

With `CC1(C)[C@H]2O[C@H]2[C@H]2[C@](C)(O)[C@@H]3CC[C@]4(O)C[C@@]3(C[C@@H](O)[C@@]21O)C[C@@]4(C)O`, the inhibition in vivo at 0.08 mg/kg in the test with Mus musculus [3] stood at 78%. For the molecule `C=C1[C@@H]2[C@@H](O)[C@H](O)C(C)(C)[C@@]2(O)[C@H](O)C[C@@]23C[C@@](O)(CC[C@@H]12)[C@](C)(O)C3`, the inhibition entry in the test with Mus musculus [1] is “Active”. As for `C=C1C[C@]23C[C@H]1CC[C@H]2C(=C)[C@@H]1C[C@H](O[C@@H]2O[C@H](CO)[C@@H](O)[C@H](O)[C@H]2O)C(C)(C)[C@@]1(O)[C@H](O)C3`, in the test with Mus musculus [1], the inhibition result was “Active”. Take `CN1CC[C@]23c4c5ccc(O)c4O[C@H]2[C@@H](O)C=C[C@H]3[C@H]1C5` [MORPHINE]: the inhibition in vivo at 0.8 mg/kg with Mus musculus [2] worked out at 86%.

Take `C=C1[C@H]2C[C@@H](O)C(C)(C)[C@H](O)[C@@H]2C[C@@]23C[C@@](O)(CC[C@@H]12)[C@](C)(O)C3`: in the test with Mus musculus [1], the inhibition result is “Active”.

For the origin of these results see ChEMBL document CHEMBL4145573, “Antinociceptive Diterpenoids from the Leaves and Twigs of Rhododendron decorum” (2018).
